Measured values published in PubChem BioAssay AID179 (DTP/NCI, 2004).
Several values for one entry are separate records, joined by “and”; a condition that tells them apart may be missing. Identical values can stand only once. Activity calls are given as the source filed them.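 How the source made its calls: active means compounds giving half or more protection of infected cells from virus-caused growth loss, again on retest; inactive means the rest.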 Where a SMILES comes first, the peptide text is derived from it.

Test system: CEM cells HIV-1 protection, formazan growth assay
Assay: NCI AIDS Antiviral Assay
Details: for IC50: measured here: growth of uninfected CEM cells
How it was run: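 Protection of CEM cells against HIV-1 was scored from cell growth (soluble formazan) across five concentrations, with parallel uninfected cells. Lack of protection may reflect toxicity.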

| SMILES | EC50 | IC50 | outcome |
| --- | --- | --- | --- |
| COc1ccc(-c2cn3c(nc4ccccc43)c(C)n2)cc1 | > 200 µM | > 200 µM |  |
| COC(=O)c1cc(C(=CCCCCCBr)c2cc(Cl)c(OC)c(C(=O)OC)c2)cc(Cl)c1OC | > 4.79 µM | > 4.79 µM |  |
| O=C1c2ccccc2C(=O)N1CCN(CCN1C(=O)c2ccccc2C1=O)Cn1cccn1 |  |  | inactive |
| O=C1[C@H](O)[C@@H]2CCC[C@@]23CCCN13 | > 200 µM | > 200 µM |  |
| COc1cc2c[n+](C)c3c(c2cc1OC)Cc1cc2c(cc1-3)OCO2 | > 19.5 µM | > 19.5 µM |  |
| Cc1cccc(C)c1NC(=O)CCCC(=O)CC(=O)/C=C/c1ccccc1 | > 501 µM | > 501 µM |  |
| COc1cc2c(c(OC)c1OC)-c1ccc(OC)c(=O)cc1[C@@H](NC(C)=O)CC2 |  |  | inactive |
| O=C(CC(O)(C(F)(F)F)C(F)(F)Cl)CC(O)(C(F)(F)F)C(F)(F)Cl (stereo not drawn) |  |  | inactive |
| O=S(=O)(NC(c1ccccc1)(c1cc2ccccc2[nH]1)c1cc2ccccc2n1S(=O)(=O)c1ccccc1)c1ccccc1 (stereo not drawn) | > 200 µM | > 200 µM |  |
| O=C1NC(=S)S/C1=C\c1ccc(Cl)cc1 | > 74.1 µM | 66.1 µM |  |
| Cc1cc(C)nc(NS(=O)(=O)c2ccc(NC(=O)c3cccc4c(Nc5ccc(S(=O)(=O)Nc6nc(C)cc(C)n6)cc5)c5ccccc5nc34)cc2)n1 | > 33.9 µM | 30.2 µM |  |
| COc1ccc(/C=C/C(=O)Oc2ccc(/C=C3\CCCCC3=O)cc2)cc1 | > 200 µM | 1.05 µM |  |
| COC1/C=C\OC2(C)Oc3c(C)c(O)c4c(O)c(c(/C=N\NC(=O)CC(=O)N/N=C/c5c6c(O)c7c(O)c(C)c8c(c7c5O)C(=O)C(C)(O/C=C/C(OC)C(C)C(OC(C)=O)C(C)C(O)C(C)C(O)C(C)/C=C/C=C(C)C(=O)N6)O8)c(O)c4c3C2=O)NC(=O)/C(C)=C\C=C/C(C)C(O)C(C)C(O)C(C)C(OC(C)=O)C1C (stereo not drawn) | > 115 µM | 87.1 µM |  |
| CSC1SCC2C(=O)N(C)C(C(C)C)C(=O)OCC(NC(=O)c3cnc4ccccc4n3)C(=O)NC(C)C(=O)N(C)C1C(=O)N(C)C(C(C)C)C(=O)OCC(NC(=O)c1cnc3ccccc3n1)C(=O)NC(C)C(=O)N2C (stereo not drawn) | > 0.12 µM | 0.000355 µM |  |
| CCOC(=N)COC(=O)c1ccccc1 | > 200 µM | > 200 µM |  |
| c1ccc2[nH]c(SSSSc3nc4ccccc4[nH]3)nc2c1 | > 200 µM | > 200 µM |  |
| COc1cc(C[C@H]2c3cc(OC)c(OC)cc3CCN2C)c(Oc2cc3c(cc2OC)-c2c(OC)c(OC)cc4c2[C@H](C3)N(C)CC4)cc1OC |  |  | inactive |
| O=c1cc(O)c2ccccc2o1 | > 1550 µM | 617 µM |  |
| CCOC1c2cc(OC)c(OC)cc2-c2ccc3ccccc3c2N1C (stereo not drawn) | > 74.1 µM | 10.2 µM |  |
| CCOC(=O)c1nc2cc(C(F)(F)F)ccc2nc1Nc1cc(OC)c(OC)c(OC)c1 |  |  | inactive |
| CC(C)CC(NC(=O)C(Cc1ccc(O)cc1)NC(=O)C(C)N)C(=O)NCC(=O)NC(CCCCN)C(=O)NC(CCCCN)C(=O)NC(C(=O)NC(C)C(=O)NC(C(=O)NC(CC(N)=O)C(=O)O)C(C)O)C(C)C (stereo not drawn) (H-AYLGKKVATN-OH; configuration not given here) |  |  | inactive |

| SMILES | EC50 | IC50 | outcome |
| --- | --- | --- | --- |
| C[C@@H]1C(=O)O[C@H]1[C@H](O)CO | > 200 µM | > 200 µM |  |
| Cc1cc(/C(C#N)=C/c2ccc(N(C)C)cc2)cc(C)c1[N+](=O)[O-] | > 2 µM | 0.105 µM |  |
| CN(C)Cc1cc(N=Nc2ccc(Cl)c(Cl)c2)ccc1O | > 200 µM | 18.6 µM |  |
| COC(=O)C1C(O)C(C)C(O)C(C)C=C(C)C2=C3C(=C(C)C(=O)c4c(O)c(c(C)c(OC(C)=O)c43)NC(=O)C(C)=C/C=C\C(C)C(O)C(C)C1O)OCO2 (stereo not drawn) | > 77.6 µM |  |  |
| CN(C)CC1CCC(CN(C)C)C1=NO (stereo not drawn) |  |  | inactive |
| COc1cccc(C2NC(=O)c3c(n[nH]c3N)S2)c1O (stereo not drawn) | > 200 µM | > 200 µM |  |
| COC(=O)C1=C(C)N2CCCOC2(C)C(C(=O)OC)C1c1cccc(Cl)c1 (stereo not drawn) | > 200 µM | 112 µM |  |
| O=C1c2ccccc2-c2c1c1ccccc1c(=O)n2Cc1ccccc1 | > 29.5 µM | > 29.5 µM |  |
| Oc1ccc(Cl)cc1Sc1cc(Cl)ccc1O | > 200 µM | 7.41 µM |  |
| CN(C)c1cccc(/C=C(\C#N)c2ccccc2)c1 | > 200 µM | 0.339 µM |  |
| CCN(CC)C(=S)N/N=C/c1cc(OC)ccc1O | > 200 µM | 10 µM |  |
| O=[N+]([O-])c1ccc(C2=Nc3ccccc3S(=O)C(c3ccccc3)C2)cc1 (stereo not drawn) | > 7.24 µM | > 7.24 µM |  |
| CCCc1cc(=O)oc2c3c(c4c(c12)OC(C)(C)C=C4)O[C@H](C)[C@@H](C)[C@@H]3OC(C)=O | 1.7 µM | 26.9 µM |  |
| O=C(CC(=O)c1cccc2ccccc12)C(=O)NC1C2CC3CC(C2)CC1C3 (stereo not drawn) |  |  | inactive |
| CC(=O)CC1(O)C(=O)Nc2ccccc21 (stereo not drawn) | > 200 µM | > 200 µM |  |
| O=C(NO)C(=O)Nc1ccc(Cl)cc1[N+](=O)[O-] | > 100 µM | > 100 µM |  |
| CCN(CC)CCC(=O)N1CCc2c([nH]c3ccccc23)C1c1cccnc1 (stereo not drawn) | > 95.5 µM | > 95.5 µM |  |
| O=C(N/N=C(/c1nc2ccc(Cl)cc2[nH]c1=O)C(O)c1ccc(Cl)cc1Cl)c1ccncc1 (stereo not drawn) | > 501 µM | 162 µM |  |
| O=C(O)c1ccc2c(c1)S(=O)(=O)c1ccccc1C2=O | > 200 µM | > 200 µM |  |
| Cc1cc(N(CCC#N)CCC#N)ccc1/C=C(\NC(=O)/C=C/c1ccccc1)C(=O)Nc1ccccc1Cl |  |  | inactive |
| C=CC1ON(Cc2ccccc2)CCc2cc(OC)c(OC)cc21 (stereo not drawn) | > 200 µM | 40.7 µM |  |

| SMILES | EC50 | IC50 | outcome |
| --- | --- | --- | --- |
| COc1ccc(Cl)cc1NC(=O)c1ccco1 | > 200 µM | > 200 µM |  |
| CC(C)CCCC(C)[C@H]1CC[C@H]2[C@@H]3CC[C@H]4C[C@@H](CCC=C(c5cc(Cl)c(OCc6ccc(CC(=O)O)cc6)c(C(=O)O)c5)c5cc(Cl)c(OCc6ccc(CC(=O)O)cc6)c(C(=O)O)c5)CC[C@]4(C)[C@H]3CC[C@]12C (stereo partly drawn) | 1.7 µM and 1.41 µM | 115 µM and 20 µM |  |
| O=C1CSC(=Nc2ccccc2)N1c1ccc(-n2c(-c3ccc(N=Cc4ccc(Cl)cc4)cc3)nc3ccccc3c2=O)cc1 | > 56.2 µM | > 56.2 µM |  |
| O=C1c2cccnc2S(=O)(=O)N1c1ccc(Oc2ccccc2)cc1 | > 200 µM | > 200 µM |  |
| O=C(O)CN(c1ccccc1)S(=O)(=O)c1cccc([N+](=O)[O-])c1 |  |  | inactive |
| COc1ccc2c3c([nH]c2c1[N+](=O)[O-])C(C)N(C)CC3 (stereo not drawn) |  |  | inactive |
| O=c1[nH]c2cc3c(cc2n2cccc12)oc1ccccc13 | > 200 µM | > 200 µM |  |
| Cc1ccc2nc(N/N=C/c3sccc3C)cc(C)c2c1 | > 200 µM | 49 µM |  |
| O=S(=O)(c1ccccc1)C1CN(Cc2ccccc2)CCN(Cc2ccccc2)C1 |  |  | inactive |
| COC(=O)c1ccc(COC(=O)N2C=CCC2C(=O)O)cc1 (stereo not drawn) | > 200 µM | > 200 µM |  |
| CCc1n[nH]c(=O)n1CCCCCCCCn1c(CC)n[nH]c1=O | > 200 µM | > 200 µM |  |
| O=C(O)c1ccccc1SCc1cccc2c(=O)c3ccc(Cl)cc3oc12 | 10.2 µM | 30.2 µM |  |
| O=C1c2cc3c(cc2CC12Cc1ccc4c(c1C2=O)CCC4)CCCC3 (stereo not drawn) | > 200 µM | > 200 µM |  |
| Cc1ccc(N2CCC3(CC2)OCCO3)cc1 |  |  | inactive |
| COC12CC(=O)C(C(C)=O)=C(O)C1(C)c1c(OC(C)=O)c(C)c(O)c(C(C)=O)c1O2 (stereo not drawn) | > 603 µM | 10.7 µM |  |
| N#Cc1c(O)c(C=Nc2ccc(Cl)cc2)c(=O)n2c1[nH]c1ccccc12 | > 100 µM | > 100 µM |  |
| OCC1OC(O)C(N=C/C=C/c2ccccc2)C(O)C1O (stereo not drawn) | > 200 µM | 22.9 µM |  |
| c1nc2nc3c(cn2n1)CCCC3 |  |  | inactive |
| Cc1ccc(O)c(C(=O)CCCC(=O)c2cc(C)ccc2O)c1 | > 12 µM | > 12 µM |  |
| O=C1c2ccccc2-c2nnc(-c3ccc([N+](=O)[O-])cc3)cc21 | > 100 µM | > 100 µM |  |
| COC(C(=O)CN(C)C)(c1ccccc1)c1ccccc1 | > 200 µM | 141 µM |  |

| SMILES | EC50 | IC50 | outcome |
| --- | --- | --- | --- |
| c1cc2cc(c1)CN1CCNCCN(CCNCC1)Cc1cccc(c1)CN1CCNCCN(CCNCC1)C2 | > 50.1 µM | > 50.1 µM |  |
| CCO/C=C1\N=C(c2ccccc2Br)OC1=O | > 316 µM | > 316 µM |  |
| O=C1c2ccccc2C(=O)c2cscc21 | > 77.6 µM | 18.6 µM |  |
| COc1cc(CO)c(C2OC(CO)C(O)C2O)c(OC)c1 (stereo not drawn) |  |  | inactive |
| CC(=O)O[C@@H]1CCN(C(=O)C(NC(=O)OC(C)(C)C)C(C)C)[C@@H]1C(O)CC(=O)O (stereo partly drawn) | > 200 µM | > 200 µM |  |
| COc1ccc(C(O)/C(=C/n2ccnc2)c2ccccc2)cc1OC (stereo not drawn) | > 537 µM | > 537 µM |  |
| CCOC#CCCOCc1ccccc1 | > 66.1 µM | > 66.1 µM |  |
| Brc1ccc(C[N+]23CCN(CC2)CC3)cc1 | > 692 µM | > 692 µM |  |
| COc1ccc(C2=C(OC(C)=O)c3cccn3-c3ccccc3S2)cc1 | > 200 µM | 1.32 µM |  |
| CN1C(=O)[C@H](c2c[nH]c3ccccc23)[C@H](c2c[nH]c3ccccc23)C1=O | > 129 µM | 38 µM |  |
| COC(=O)c1cc(C)ccc1C1CN=NC12Cc1cccc(C)c1C2=O (stereo not drawn) | > 200 µM | 26.9 µM |  |
| O=Cc1ccccc1CCn1c(=O)c2cc3c(=O)n(CCc4ccccc4C=O)c(=O)c3cc2c1=O | > 10.7 µM | > 10.7 µM |  |
| O=C(/C=C/c1ccc(O)cc1)CC(=O)/C=C/c1ccc(O)cc1 | > 200 µM | 9.55 µM |  |
| O[C@]12c3ccccc3C1CCCCC2N1CCOCC1 (stereo partly drawn) | > 200 µM | > 200 µM |  |
| Oc1ccc([C@H]2Oc3c(ccc(O)c3O)[C@@H](O)[C@H]2O)cc1O | > 200 µM | 29.5 µM |  |
| O=c1oc2ccccc2cc1/C=N/N1C(=S)N(c2ccccc2)C(=Nc2ccccc2)C1=Nc1ccccc1 | > 200 µM | > 200 µM |  |
| CC(=O)O[C@H]1C(N(C)C(=O)c2ccccc2)CC[C@]2(C)C3CC[C@@]4(C)C(CC(O)[C@@H]4C(C)N(C)C)[C@@H]3CCC12 (stereo partly drawn) | > 25.1 µM | > 25.1 µM |  |
| COC(=O)C(=O)C(/C=N/C(=S)NC1CCCCC1)=C(\O)c1ccc(F)cc1 | > 200 µM | > 200 µM |  |
| CCOC(=O)/C(=C/c1ccccc1Br)P(=O)(OCC)OCC | > 91.2 µM | 5.75 µM |  |
